Measured values: patent US7354711B2, “Methods for inhibiting immunostimulatory DNA associated responses” (University of Iowa Research Foundation, priority 1997, dated 2008)

Test system: WEHI 231 cells
Assay: Inhibition of CpG-ODN 1760 protection against α-sIgM-induced inhibition of [3H] thymidine uptake
Assay type: cell-based, mouse
Details: for Fold: activity expressed as a fraction of activity of chloroquine / Activity: -log10 of the concentration (M) required for half maximal inhibition of CpG-ODN effect on [3H] thymidine uptake in the presence of α-sIgM: Table 2, 4-aminoquinolines; for Activity: -log10 of the concentration (M) required for half maximal inhibition of CpG-ODN effect on [3H] thymidine uptake in the presence of α-sIgM / Activity,-log10 (concentration (M) for half maximal inhibition of CpG-ODN effect on [3H] thymidine uptake in the presence of α-sIgM): WEHI 231 cells; for vs. Chloroquine, fold / Activity,-log10 (concentration (M) for half maximal inhibition of CpG-ODN effect on [3H] thymidine uptake in the presence of α-sIgM): Table 3, 9-aminoacridines
Method: The assay of [^3H] Thymidine incorporation was carried out as follows. WEHI 231 cells (200 μL at 2×10^5/milliliter, in duplicate or triplicate) were incubated in a 96-well plate (Costar, Cambridge Mass.). Additions were made as indicated. After incubating for 16 hours, 0.5 μCi [methyl-^3H] thymidine (2 Ci/millimole, DuPont NEN, Boston Mass.) was added to each well, and the cells were incubated for another 4 hours. Cellular DNA was then captured onto glass fiber filters (Whatman 934AH) using a cell harvester (Brandel, Gaithersberg Md.). The filters were dried, placed into plastic scintillation vials with 10 milliliters of scintillation cocktail (EconoSafe, Research Products International, Mount Prospect Ill.), and counted in a liquid scintillation counter (Beckman LS-3133 T). The ^3H recovered on the filter was expressed as a fraction of the ^3H added.
Referring to experiments summarized in FIG. 1, WEHI 231 cells (ca. 2×10^5 per milliliter) were incubated for 16 hours at 37° C. with 10 μgrams/milliliter α-sIgM, 6 μgrams/milliliter ODN 1760, and the indicated concentration of the compound. After 16 hours, 0.5 μCi [^3H] thymidine was added. After 4 more hours incubation, the cellular DNA was harvested onto glass fiber filters. The dry filters were counted in a liquid scintillation counter.
Each experimental point was the mean of at least duplicate measurements.
Referring to the experiments summarized in FIG. 3, 10 μgrams/milliliter α-sIgM and the indicated concentrations of ODN 1760 and quinacrine were added simultaneously to WEHI 231 cells. Thymidine incorporation was estimated at 16 hours as described for Example 1.
Referring to the experiments summarized in FIG. 4, WEHI 231 cells were incubated with α-sIgM and ODN 1760. At times thereafter 0.1 μM quinacrine was added (data shown in the left three bars). Cells were incubated with 10 μgrams/milliliter (α-sIgM and ODN 1760 (6 μgrams/milliliter, phosphorothioate or a phosphodiester ODN with the same sequence as 1760 (PD ODN) (30 μM at time 0 hours and 8 hours; data represented in right six bars in FIG. 4). [^3H] thymidine incorporation was estimated at 16 hours.
The symbol — indicates no change. Me and Et indicate —CH3 and —CH2CH3 respectively. Aromatic substituents are in the para position except as indicated. The activity is —log10 of the concentration (M) required for half maximal inhibition of CpG-ODN effect on [^3H] thymidine uptake in the presence of α-sIgM.

C=C[C@H]1C[N@@]2CC[C@H]1C[C@@H]2[C@@H](O)c1ccnc2ccc(OC)cc12 [Quinidine, quinidine, reference compound]
Effect on CpG-ODN action (FIG. 1) (at concentrations less than 10 μM): little effect

CCN(CC)Cc1cc(Nc2ccnc3cc(Cl)ccc23)ccc1O [amodiaquine, reference compound]
Inhibition of the CpG-ODN effect (FIG. 1) (at nanomolar concentrations, 10 μg/mL α-sIgM, 6 μg/mL ODN 1760): completely inhibited

CCN(CC)CCCC(C)Nc1c(C)cnc2cc(Cl)ccc12 (stereo not shown) [compound 1]
Fold: activity expressed as a fraction of activity of chloroquine: 0.55 fold
Activity: -log10 of the concentration (M) required for half maximal inhibition of CpG-ODN effect on [3H] thymidine uptake in the presence of α-sIgM: 6.70

CCN(CC)CCCC(C)Nc1ccnc2cc(C)ccc12 (stereo not shown) [compound 3]
Fold: activity expressed as a fraction of activity of chloroquine: 0.16 fold
Activity: -log10 of the concentration (M) required for half maximal inhibition of CpG-ODN effect on [3H] thymidine uptake in the presence of α-sIgM: 6.16

CCN(CC)CCCC(C)Nc1ccnc2cc(Br)ccc12 (stereo not shown) [compound 4]
Fold: activity expressed as a fraction of activity of chloroquine: 0.72 fold
Activity: -log10 of the concentration (M) required for half maximal inhibition of CpG-ODN effect on [3H] thymidine uptake in the presence of α-sIgM: 6.82

CCN(CC)CCC(CNc1ccnc2cc(Cl)ccc12)c1ccccc1 (stereo not shown) [compound 7]
Fold: activity expressed as a fraction of activity of chloroquine: 1.38 fold
Activity: -log10 of the concentration (M) required for half maximal inhibition of CpG-ODN effect on [3H] thymidine uptake in the presence of α-sIgM: 7.10

CC[N+](C)(CC)CCCC(C)Nc1ccnc2cc(Cl)ccc12 (stereo not shown) [compound 8]
Fold: activity expressed as a fraction of activity of chloroquine: 0.02 fold
Activity: -log10 of the concentration (M) required for half maximal inhibition of CpG-ODN effect on [3H] thymidine uptake in the presence of α-sIgM: 5.18

CCN(CC)CCCC(C)Nc1ccnc2cccc(Cl)c12 (stereo not shown) [compound 9]
Fold: activity expressed as a fraction of activity of chloroquine: 0.76 fold
Activity: -log10 of the concentration (M) required for half maximal inhibition of CpG-ODN effect on [3H] thymidine uptake in the presence of α-sIgM: 6.84

CN(C)CCCCNc1ccnc2cc(Cl)ccc12 [compound 10]
Fold: activity expressed as a fraction of activity of chloroquine: 0.72 fold
Activity: -log10 of the concentration (M) required for half maximal inhibition of CpG-ODN effect on [3H] thymidine uptake in the presence of α-sIgM: 6.82

CCN(CC)CCCC(C)Nc1ccnc2cc(Cl)ccc12 (stereo not shown) [compound 11]
Activity: -log10 of the concentration (M) required for half maximal inhibition of CpG-ODN effect on [3H] thymidine uptake in the presence of α-sIgM: 6.56

CCN(CC)CCCC(C)Nc1c(-c2ccccc2)cnc2cc(Cl)ccc12 (stereo not shown) [compound 12]
Fold: activity expressed as a fraction of activity of chloroquine: 0.69 fold
Activity: -log10 of the concentration (M) required for half maximal inhibition of CpG-ODN effect on [3H] thymidine uptake in the presence of α-sIgM: 6.80

CCN(CC)CCCC(C)Nc1ccnc2cc(F)ccc12 (stereo not shown) [compound 13]
Fold: activity expressed as a fraction of activity of chloroquine: 0.26 fold
Activity: -log10 of the concentration (M) required for half maximal inhibition of CpG-ODN effect on [3H] thymidine uptake in the presence of α-sIgM: 6.38

CCN(CC)CCCC(C)Nc1ccnc2cc(OC)ccc12 (stereo not shown) [compound 14]
Fold: activity expressed as a fraction of activity of chloroquine: 0.17 fold
Activity: -log10 of the concentration (M) required for half maximal inhibition of CpG-ODN effect on [3H] thymidine uptake in the presence of α-sIgM: 6.20

CCN(CC)CCCC(C)Nc1ccnc2cc(Cl)ccc12 (stereo not shown) [compound 15]
Activity: -log10 of the concentration (M) required for half maximal inhibition of CpG-ODN effect on [3H] thymidine uptake in the presence of α-sIgM: 6.96

CCN(CC)CCCC(Nc1c2ccc(Cl)cc2nc2ccc(OC)cc12)c1ccc(F)cc1 (stereo not shown) [compound 23]
vs. Chloroquine, fold: 2.57 fold
Activity,-log10 (concentration (M) for half maximal inhibition of CpG-ODN effect on [3H] thymidine uptake in the presence of α-sIgM): 7.37

CCN(CC)CCCC(Nc1c2ccc(Cl)cc2nc2ccc(OC)cc12)c1cccnc1 (stereo not shown) [compound 24]
vs. Chloroquine, fold: 3.63 fold
Activity,-log10 (concentration (M) for half maximal inhibition of CpG-ODN effect on [3H] thymidine uptake in the presence of α-sIgM): 7.52

CCN(CC)CCCC(Nc1c2ccc(Cl)cc2nc2ccc(OC)cc12)c1ccccc1 (stereo not shown) [compound 25]
vs. Chloroquine, fold: 5.75 fold
Activity,-log10 (concentration (M) for half maximal inhibition of CpG-ODN effect on [3H] thymidine uptake in the presence of α-sIgM): 7.72

CCN(CC)CCCC(C)Nc1c2ccc(Cl)cc2nc2cc(OC)c(OC)cc12 (stereo not shown) [compound 26]
vs. Chloroquine, fold: 10.72 fold
Activity,-log10 (concentration (M) for half maximal inhibition of CpG-ODN effect on [3H] thymidine uptake in the presence of α-sIgM): 7.99

CCN(CC)CCCC(Nc1c2ccc(Cl)cc2nc2ccc(OC)cc12)c1cccs1 (stereo not shown) [compound 27]
vs. Chloroquine, fold: 1.82 fold
Activity,-log10 (concentration (M) for half maximal inhibition of CpG-ODN effect on [3H] thymidine uptake in the presence of α-sIgM): 7.22
